Measurements reported in patent US20140219995A1, “INHIBITORS OF BACTERIAL TYPE III SECRETION SYSTEM” (priority 2011, published 2014).
Read-outs that look alike come from different tables or passages of the source.

What was measured:
[1] = test system: T3SS-mediated secretion of ExoS′-βLA fusion protein, P. aeruginosa strain MDM973; assay: Effector-β-lactamase (ExoS′-βLA) secretion assay; type: cell-based, Pseudomonas aeruginosa; details: for IC50: Pseudomonas aeruginosa
Excerpt: Effector-β-Lactamase (βLA) Secretion Assays.
P. aeruginosa. A gene encoding an ExoS'-β-lactamase (βLA) fusion protein (comprised of 234 codons of P. aeruginosa effector ExoS fused to the TEM-1 β-lactamase gene lacking secretion signal codons) was constructed by splicing by overlap extension PCR (SOE-PCR) (Choi and Schweizer, 2005, BMC Microbiol., 5:30) using primers 5-10 (Table 3, above), sequence confirmed, cloned into lacI^Q-containing GATEWAY® vector pUCP24GW (see Moir, et al., 2007, J Biomol. Screen., 12:855-64) behind the lac promoter, and introduced into P. aeruginosa by electroporation (see Choi, et al., 2006, J. Microbiol. Methods, 64:391-7). Secretion of fusion proteins was detected by measuring the hydrolysis of the chromogenic β-lactamase substrate nitrocefin in clear 96-well microplates in a modification of a previously described assay (Lee, et al., 2007, Infect. Immun., 75:1089-98). Cells of strain MDM973 (PAK/pUCP24GW-exoS:blaM) were sub-cultured in the morning from overnight growths in LBG into 0.1 ml of LBGIE with or without test compounds and grown for 150 min. Nitrocefin (100 μg/ml final) was added, and A490 measurements taken every minute for 15 min in a Victor^3V 1420 Multilabel HTS Counter (PerkinElmer). Slopes were calculated as a relative measure of the quantity of the effector-βLA fusion protein secreted and were absolutely dependent on induction with IPTG, EGTA, and the presence of a functional pscC gene in the P. aeruginosa cells. Typical signal:background ratios were 6-10.

[2] = test system: T3SS-mediated cytotoxicity of translocated effector protein ExoU in CHO cells; assay: Inhibition of P. aeruginosa ExoU-dependent CHO cell killing (translocation, LDH release); type: cell-based; details: Pseudomonas aeruginosa
Excerpt: Inhibition of P. aeruginosa ExoU-Dependent CHO Cell Killing.
Pseudolipasin, which acts by direct inhibition of the ExoU phospholipase, was used as control inhibitor (Lee, et al, 2007, Infect. Immun., 75:1089-98).

[3] = read-out: Avg. Translocation IC50

Row | SMILES | IC50 ([1]; read-out: Avg. Secretion IC50) [µM] | IC50 [2, 3] [µM] | melting point [°C] | other results
1 | CC(Oc1ccc(Cl)cc1Cl)C(=O)NCc1ccccc1N(C)C (stereo not drawn) [MBX-1959] | 18.6 | 60 | 85 | –
2 | CC(Oc1ccc(F)cc1Cl)C(=O)NCc1ccc(F)cc1 (stereo not drawn) [MBX-2029] | 52.1 | > 100 | 95 | –
3 | CC(Oc1ccc(F)cc1Cl)C(=O)NCc1ccc2c(c1)OCO2 (stereo not drawn) [MBX-2026] | – | – | 95 | –
4 | CC(Oc1ccc(Cl)cc1Cl)C(=O)CCc1ccc(F)cc1 (stereo not drawn) [MBX-2719, 4-(2,4-dichlorophenoxy)-1-(4-fluorophenyl)pentan-3-one] | > 100 | – | – | –
5 | COc1cc2c(cc1CNC(=O)C(C)Oc1ccc(Cl)cc1Cl)OCCO2 (stereo not drawn) [MBX-1998] | 17.6 | 51.4 | 152 | –
6 | CC(Oc1ccc(Cl)cc1Cl)C(=O)N1CCc2cc(F)ccc2C1 (stereo not drawn) [MBX-2189] | 111 | – | – | IC50 ([1]; read-out: Secretion IC50): 111 µM
7 | CC(Oc1ccc(Cl)cc1Cl)C(=O)OCCc1ccc(F)cc1 (stereo not drawn) [MBX-2717, 4-fluorophenethyl 2-(2,4-dichlorophenoxy)propanoate] | > 100 | – | – | –
8 | CC(Oc1ccc(Cl)cc1Cl)C(=O)NCc1ccc2c(c1)OCCCO2 (stereo not drawn) [MBX-1999] | 23.9 | > 100 | 115 | –
9 | COc1ccc(CNC(=O)C(C)Nc2ccc(Cl)cc2Cl)cc1OC (stereo not drawn) [MBX-2213] | 58.7 | – | 132 | –
10 | CC(Oc1ccc(Cl)cc1Cl)C(=O)NCc1ccc(F)nc1 (stereo not drawn) [MBX-2677] | 40 | – | 55 | –
11 | CC(C)C(Oc1ccc(Cl)cc1Cl)C(=O)NCc1ccc2c(c1)OCO2 (stereo not drawn) [MBX-2146] | – | – | – | effect of structural alteration on T3SS-mediated secretion inhibition ([1]; vs. MBX-1641): significantly inferior performance
12 | CC(Oc1ccc(Cl)cc1Cl)C(=O)NCCCc1ccc(F)cc1 (stereo not drawn) [MBX-2622] | > 100 | – | 112 | –
13 | CC(Oc1ccc(Cl)cc1Cl)C(=O)N(C)Cc1ccc2c(c1)OCO2 (stereo not drawn) [MBX-2160] | 10.1 | 24.3 | – | effect of structural alteration on T3SS-mediated secretion inhibition ([1]; vs. MBX-1641): slightly negative impact
14 | CC(Oc1ccc(Cl)cc1Cl)c1nc(Cc2ccc(F)cc2)no1 (stereo not drawn) [MBX-2708, 5-[1-(2,4-dichlorophenoxy)ethyl]-3-(4-fluorobenzyl)-1,2,4-oxadiazole] | > 100 | – | – | –
15 | COc1cccc(CNC(=O)C(C)Oc2ccc(Cl)cc2Cl)c1OC (stereo not drawn) [MBX-1948] | 10.1 | > 100 | 130 | –
16 | CC(Oc1ccc(Cl)cc1Cl)C(=O)NCc1ccc2c(c1)CCCN2C (stereo not drawn) [MBX-2000] | 25.7 | > 100 | 119 | –
17 | COc1cccc(CNC(=O)C(C)Oc2ccc(Cl)cc2Cl)c1 (stereo not drawn) [MBX-1941] | 17.2 | – | 119 | –
18 | CC(Oc1ccc(Cl)cc1Cl)C(=O)NCc1ccc(C2(C(F)(F)F)N=N2)cc1 (stereo not drawn) [MBX-2718] | > 100 | – | 117 | –
19 | COc1cc(CNC(=O)C(C)Oc2ccc(Cl)cc2Cl)cc(OC)c1 (stereo not drawn) [MBX-1943] | 18.8 | 23.7 | 111 | –
20 | COc1ccc(OC)c(CNC(=O)C(C)Oc2ccc(Cl)cc2Cl)c1 (stereo not drawn) [MBX-1947] | 34.8 | > 100 | 67 | –
21 | Cc1ccccc1CNC(=O)C(C)Oc1ccc(Cl)cc1Cl (stereo not drawn) [MBX-1951] | – | 66.7 | 128 | –
22 | CC(Sc1ccc(Cl)cc1Cl)C(=O)NCc1ccc2c(c1)OCO2 (stereo not drawn) [MBX-2161] | 5 | – | 137 | IC50 values lower (T3SS secretion inhibition) ([1]; vs. MBX-1641): 29%
23 | COc1ccc(CNC(=O)C(C)Oc2ncc(Cl)cc2Cl)cc1OC (stereo not drawn) [MBX-2156] | 24 | > 100 | 156 | –
24 | CC(Oc1ccc(Cl)cc1Cl)C(=O)NC(CO)c1ccc(F)cc1 (stereo not drawn) [MBX-2625] | 5 | – | – | –
25 | COc1ccc(CNC(=O)C(C)Oc2ccc(F)cc2Cl)cc1 (stereo not drawn) [MBX-2028] | 75.3 | > 100 | 97 | –
26 | CC(Oc1ccc(Cl)cc1Cl)C(=O)NCc1cccc(N(C)C)c1 (stereo not drawn) [MBX-1960] | 12.2 | 58 | 108 | –
27 | CC(C)(Oc1ccc(Cl)cc1Cl)C(=O)NCc1ccc2c(c1)OCO2 [MBX-1685] | > 100 | – | 92 | effect of structural alteration on T3SS-mediated secretion inhibition ([1]; vs. MBX-1641): significantly inferior performance

Row | SMILES | IC50 ([1]; read-out: Avg. Secretion IC50) [µM] | IC50 [2, 3] [µM] | melting point [°C] | other results
28 | CC(Oc1ccc(Cl)cc1Cl)C(=O)NCc1ccc(N2CCCC2=O)cc1 (stereo not drawn) [MBX-1987] | 18.8 | 20 | 138 | –
29 | O=C(COc1ccc(Cl)cc1Cl)NCc1ccc2c(c1)OCO2 [MBX-1668] | > 100 | – | 117 | effect of structural alteration on T3SS-mediated secretion inhibition ([1]; vs. MBX-1641): significantly inferior performance
30 | CC(Oc1ccc(Cl)cc1Cl)C(=O)NCc1ccccc1Cl (stereo not drawn) [MBX-1956] | – | 52.3 | 113 | –
31 | COc1ccc(CNC(=O)C(C)Nc2ccc(Cl)cc2Cl)cc1 (stereo not drawn) [MBX-2214] | 24.5 | – | 125 | –
32 | CC1Cc2cc(CNC(=O)C(C)Oc3ccc(Cl)cc3Cl)ccc2O1 (stereo not drawn) [MBX-2001] | 14 | 84 | 100 | –
33 | CC(Oc1ncc(Cl)cc1Cl)C(=O)NCc1ccc(C2(C(F)(F)F)N=N2)cc1 (stereo not drawn) [MBX-2713] | > 100 | – | 112 | –
34 | CC(Nc1ccc(Cl)cc1Cl)C(=O)NCc1ccc(F)cc1 (stereo not drawn) [MBX-2215] | 17.2 | – | – | –
35 | COc1cc(OC)c(OC)cc1CNC(=O)C(C)Oc1ccc(Cl)cc1Cl (stereo not drawn) [MBX-2030] | 74.5 | > 100 | 142 | –
36 | CC(Oc1ccc(Cl)cc1Cl)C(=O)N1CCc2ccc(F)cc2C1 (stereo not drawn) [MBX-2190] | 95.6 | > 100 | – | IC50 ([1]; read-out: Secretion IC50): 95.6 µM; IC50 ([2]; read-out: Translocation IC50): ≥ 100 µM
37 | CC(Sc1ccc(Cl)cc1Cl)C(=O)NCc1ccc(F)cc1 (stereo not drawn) [MBX-2164] | 4 | – | 142 | –
38 | COc1ccc(CNC(=O)C(C)Oc2ccc(Cl)cc2Cl)cc1OC (stereo not drawn) [MBX-1942] | – | > 100 | 127 | –
39 | CC(Oc1ccc(Cl)cc1Cl)C(=O)NC(C(=O)O)c1ccc(F)cc1 (stereo not drawn) [MBX-2707] | > 100 | – | 160 | –
40 | CC(Oc1ccc(Cl)cc1Cl)C(=O)NCc1ccc2c(c1)n(C)c(=O)n2C (stereo not drawn) [MBX-1996] | 25.5 | > 100 | 180 | –
41 | C[C@@H](Oc1ccc(Cl)cc1Cl)C(=O)NCc1ccc2c(c1)OCO2 [MBX-1684] | 3.7 | – | – | –
42 | COc1ccc(CNC(=O)C(C)Sc2ccc(Cl)cc2Cl)cc1OC (stereo not drawn) [MBX-2162] | 30.4 | > 100 | 112 | –
43 | COc1cc(CNC(=O)C(C)Oc2ccc(Cl)cc2Cl)cc(OC)c1OC (stereo not drawn) [MBX-1944] | 55.5 | > 100 | 119 | –
44 | COc1ccc(CNC(=O)C(C)Oc2ccc(F)cc2Cl)cc1OC (stereo not drawn) [MBX-2027] | 100 | – | 101 | –
45 | CC(Oc1ccc(Cl)cc1Cl)C(=O)NCc1cnc2[nH]ccc2c1 (stereo not drawn) [MBX-2709] | 8.8 | – | 198 | –
46 | CC(Oc1ccc(Cl)cc1Cl)C(=O)N1CCc2cc3c(cc2C1)OCO3 (stereo not drawn) [MBX-2188] | 114 | – | – | IC50 ([1]; read-out: Secretion IC50): 114 µM
47 | CC(Oc1ccc(Cl)cc1Cl)C(=O)NC(C)c1ccc2c(c1)OCO2 (stereo not drawn) [MBX-2187] | 3.8 | 11 | 109 | –
48 | COc1ccc(CNC(=O)C(C)Oc2ccc(Cl)cc2Cl)cc1 (stereo not drawn) [MBX-1940] | – | 12.5 | 76 | –
49 | COC(=O)C(NC(=O)C(C)Oc1ccc(Cl)cc1Cl)c1ccc(F)cc1 (stereo not drawn) [MBX-2705] | 6 | – | 84 | –
50 | CC(Oc1ccc(Cl)cc1Cl)C(=O)NCc1ccc(-c2ccccc2)cc1 (stereo not drawn) [MBX-2022] | 100 | – | 114 | –
51 | COc1ccc(CNC(=O)C(C)Oc2ncc(Cl)cc2Cl)cc1 (stereo not drawn) [MBX-2157] | 9.9 | > 100 | 135 | –
52 | COc1ccc(CNC(=O)C(C)Oc2ccc(Cl)cc2Cl)c(OC)c1 (stereo not drawn) [MBX-1949] | 16.9 | – | 117 | –
53 | CC(Oc1ccc(Cl)cc1Cl)c1nc(-c2ccc(F)cc2)no1 (stereo not drawn) [MBX-2667, 5-[1-(2,4-dichlorophenoxy)ethyl]-3-(4-fluorophenyl)-1,2,4-oxadiazole] | > 100 | – | 77 | –
